Results reported in US20260042731A1, “(2,4-DICHLOROPHENOXY)ACETIC ACID ANALOGS” (CORTEVA AGRISCIENCE LLC, priority 2022, published 2026).
Like-named read-outs stand apart in the source and are kept apart here.

Columns and labels:
[1] = tested on: Chenopodium album (CHEAL), common lambsquarters; experiment: Postemergence herbicide evaluation, growth of Chenopodium album (CHEAL); type: in vivo; conditions: for pest or weed control at 280 g/ha / pest or weed control at 560 g/ha: Chenopodium album, post-emergence, read-out: Ave. CHEAL, percent reduction in plant size relative to the untreated control; for Ave. CHEAL: percent reduction in plant size vs untreated control
Corn (ZEAMX) = experiment: Greenhouse post-emergence mixture trials, percent visual control; type: in vivo; conditions: ZEAMX, 21 DAA
[2] = tested on: glyphosate resistant Conyza canadensis (L.) (ERICA), horseweed; experiment: Postemergence herbicide evaluation, growth of Conyza canadensis (ERICA); type: in vivo; conditions: for pest or weed control at 280 g/ha / pest or weed control at 560 g/ha: Erigeron canadensis, post-emergence, read-out: Ave. ERICA, percent reduction in plant size relative to the untreated control; for Ave. ERICA: percent reduction in plant size vs untreated control
[3] = tested on: Abutilon theophrasti (ABUTH), velvetleaf; experiment: Postemergence herbicide evaluation, growth of Abutilon theophrasti (ABUTH); type: in vivo; conditions: for pest or weed control at 280 g/ha / pest or weed control at 560 g/ha: Abutilon theophrasti, post-emergence, read-out: AVE. ABUTH, percent reduction in plant size relative to the untreated control; for AVE. ABUTH: percent reduction in plant size vs untreated control
[4] = tested on: weeds ABUTH, AMATA, AMBEL, CHEAL, ERICA; experiment: Postemergence herbicide evaluation, overall average % weed control (ABUTH, AMATA, AMBEL, CHEAL, ERICA); type: in vivo; conditions: post-emergence, read-out: Overall Ave % Weed Control; for pest or weed control at 280 g/ha: 280 g ae/ha; for pest or weed control at 560 g/ha: 560 g ae/ha
[5] = Volatility of compounds measured by thermogravimetric analysis (TGA); type: physicochemical
[6] = tested on: Amaranthus rudis (AMATA), tall water hemp; experiment: Postemergence herbicide evaluation, growth of Amaranthus rudis (AMATA); type: in vivo; conditions: for pest or weed control at 280 g/ha / pest or weed control at 560 g/ha: Amaranthus tuberculatus, post-emergence, read-out: Ave. AMATA, percent reduction in plant size relative to the untreated control; for Ave. AMATA: percent reduction in plant size vs untreated control
[7] = tested on: Ambrosia artemisiifolia (AMBEL), common ragweed; experiment: Postemergence herbicide evaluation, growth of Ambrosia artemisiifolia (AMBEL); type: in vivo; conditions: for pest or weed control at 280 g/ha / pest or weed control at 560 g/ha: Ambrosia artemisiifolia, post-emergence, read-out: AVE. AMBEL, percent reduction in plant size relative to the untreated control; for AVE. AMBEL: percent reduction in plant size vs untreated control
[8] = tested on: Common Lambsquarters (CHEAL); experiment: Greenhouse post-emergence mixture trials, percent visual control; type: in vivo; conditions: CHEAL, 21 DAA, Trial Bridge 2, compound 560 g ae/ha + Saflufenacil 75 g ai or ae/ha
[9] = tested on: Glycine max (Enlist E3 traited soybeans, GLXMA); conditions: Enlist E3 soybean, percent reduction in plant size vs untreated control
[10] = tested on: weeds ABUTH, AMATA, AMBEL, CHEAL, ERICA; experiment: Postemergence herbicide evaluation, overall average % weed control across ABUTH, AMATA, AMBEL, CHEAL and ERICA; type: in vivo; conditions: average over five weeds

O=C(COc1ccc(Cl)cc1Cl)Nc1ccon1 [Compound D2, 2-(2,4-Dichlorophenoxy)-N-(isoxazol-3-yl)acetamide]
pest or weed control at 280 g/ha ([1]; 168 h, 280 g ae/ha, 7 DAA): 70%
pest or weed control at 560 g/ha ([1]; 168 h, 560 g ae/ha, 7 DAA): 73%
pest or weed control at 280 g/ha ([1]; 336 h, 280 g ae/ha, 14 DAA): 73%
pest or weed control at 560 g/ha ([1]; 336 h, 560 g ae/ha, 14 DAA): 88%
pest or weed control at 280 g/ha ([1]; 504 h, 280 g ae/ha, 21 DAA): 78%
pest or weed control at 560 g/ha ([1]; 504 h, 560 g ae/ha, 21 DAA): 97%
% Control (Corn (ZEAMX); Trial Bridge 1, compound 1120 g ae/ha + Glufosinate 600 g ai or ae/ha): 5%
plant injury at 560 g/ha (Corn (ZEAMX); Zea mays, post-emergence, 504 h, compound 560 g ae/ha, no mixing partner, Trial Bridge 3): 5%
pest or weed control at 280 g/ha ([2]; 168 h, 280 g ae/ha, 7 DAA): 68%
pest or weed control at 560 g/ha ([2]; 168 h, 560 g ae/ha, 7 DAA): 73%
pest or weed control at 280 g/ha ([2]; 336 h, 280 g ae/ha, 14 DAA): 88%
pest or weed control at 560 g/ha ([2]; 336 h, 560 g ae/ha, 14 DAA): 94%
pest or weed control at 280 g/ha ([2]; 504 h, 280 g ae/ha, 21 DAA): 91%
pest or weed control at 560 g/ha ([2]; 504 h, 560 g ae/ha, 21 DAA): 99%
pest or weed control at 280 g/ha ([3]; 168 h, 280 g ae/ha, 7 DAA): 78%
pest or weed control at 560 g/ha ([3]; 168 h, 560 g ae/ha, 7 DAA): 88%
pest or weed control at 280 g/ha ([3]; 336 h, 280 g ae/ha, 14 DAA): 83%
pest or weed control at 560 g/ha ([3]; 336 h, 560 g ae/ha, 14 DAA): 93%
pest or weed control at 280 g/ha ([3]; 504 h, 280 g ae/ha, 21 DAA): 80%
pest or weed control at 560 g/ha ([3]; 504 h, 560 g ae/ha, 21 DAA): 99%
pest or weed control at 280 g/ha ([4]; 168 h, 7 DAA): 71%
pest or weed control at 560 g/ha ([4]; 168 h, 7 DAA): 77%
pest or weed control at 280 g/ha ([4]; 336 h, 14 DAA): 83%
pest or weed control at 560 g/ha ([4]; 336 h, 14 DAA): 92%
pest or weed control at 280 g/ha ([4]; 504 h, 21 DAA): 88%
pest or weed control at 560 g/ha ([4]; 504 h, 21 DAA): 98%
TGA Data (rate of weight loss, volatility) [5]: 0.2 µg/min
pest or weed control at 280 g/ha ([6]; 168 h, 280 g ae/ha, 7 DAA): 70%
pest or weed control at 560 g/ha ([6]; 168 h, 560 g ae/ha, 7 DAA): 78%
pest or weed control at 280 g/ha ([6]; 336 h, 280 g ae/ha, 14 DAA): 85%
pest or weed control at 560 g/ha ([6]; 336 h, 560 g ae/ha, 14 DAA): 92%
pest or weed control at 280 g/ha ([6]; 504 h, 280 g ae/ha, 21 DAA): 94%
pest or weed control at 560 g/ha ([6]; 504 h, 560 g ae/ha, 21 DAA): 97%
pest or weed control at 280 g/ha ([7]; 168 h, 280 g ae/ha, 7 DAA): 68%
pest or weed control at 560 g/ha ([7]; 168 h, 560 g ae/ha, 7 DAA): 73%
pest or weed control at 280 g/ha ([7]; 336 h, 280 g ae/ha, 14 DAA): 89%
pest or weed control at 560 g/ha ([7]; 336 h, 560 g ae/ha, 14 DAA): 97%
pest or weed control at 280 g/ha ([7]; 504 h, 280 g ae/ha, 21 DAA): 100%
pest or weed control at 560 g/ha ([7]; 504 h, 560 g ae/ha, 21 DAA): 97%
% Control [8]: 100%

CC(C)CCCCCOC(=O)COc1ccc(Cl)cc1Cl [Isooctyl Ester, 2,4-D-isoctyl, reference compound]
Ave. CHEAL ([1]; 280 g ae/ha, 7 DAA): 82.5%
Ave. CHEAL ([1]; 280 g ae/ha, 14 DAA): 95%
Ave. CHEAL ([1]; 280 g ae/ha, 21 DAA): 96%
Ave. CHEAL ([1]; 560 g ae/ha, 7 DAA): 77.5%
Ave. CHEAL ([1]; 560 g ae/ha, 14 DAA): 96.5%
Ave. CHEAL ([1]; 560 g ae/ha, 21 DAA): 93.5%
AVE. GLXMA ([9]; 280 g ae/ha, 7 DAA): 0%
AVE. GLXMA ([9]; 280 g ae/ha, 14 DAA): 0%
AVE. GLXMA ([9]; 280 g ae/ha, 21 DAA): 0%
AVE. GLXMA ([9]; 560 g ae/ha, 7 DAA): 0%
AVE. GLXMA ([9]; 560 g ae/ha, 14 DAA): 0%
AVE. GLXMA ([9]; 560 g ae/ha, 21 DAA): 0%
Ave. ERICA ([2]; 280 g ae/ha, 7 DAA): 85%
Ave. ERICA ([2]; 280 g ae/ha, 14 DAA): 100%
Ave. ERICA ([2]; 280 g ae/ha, 21 DAA): 98%
Ave. ERICA ([2]; 560 g ae/ha, 7 DAA): 85%
Ave. ERICA ([2]; 560 g ae/ha, 14 DAA): 98.5%
Ave. ERICA ([2]; 560 g ae/ha, 21 DAA): 99.5%
Overall Ave % Weed Control ([10]; 280 g ae/ha, 7 DAA): 80.5%
Overall Ave % Weed Control ([10]; 280 g ae/ha, 14 DAA): 89%
Overall Ave % Weed Control ([10]; 280 g ae/ha, 21 DAA): 91.3%
Overall Ave % Weed Control ([10]; 560 g ae/ha, 7 DAA): 78%
Overall Ave % Weed Control ([10]; 560 g ae/ha, 14 DAA): 94.2%
Overall Ave % Weed Control ([10]; 560 g ae/ha, 21 DAA): 95.6%
AVE. ABUTH ([3]; 280 g ae/ha, 7 DAA): 72.5%
AVE. ABUTH ([3]; 280 g ae/ha, 14 DAA): 80%
AVE. ABUTH ([3]; 280 g ae/ha, 21 DAA): 97.5%
AVE. ABUTH ([3]; 560 g ae/ha, 7 DAA): 77.5%
AVE. ABUTH ([3]; 560 g ae/ha, 14 DAA): 98.5%
AVE. ABUTH ([3]; 560 g ae/ha, 21 DAA): 100%
Ave. AMATA ([6]; 280 g ae/ha, 7 DAA): 80%
Ave. AMATA ([6]; 280 g ae/ha, 14 DAA): 92.5%
Ave. AMATA ([6]; 280 g ae/ha, 21 DAA): 65%
Ave. AMATA ([6]; 560 g ae/ha, 7 DAA): 85%
Ave. AMATA ([6]; 560 g ae/ha, 14 DAA): 87.5%
Ave. AMATA ([6]; 560 g ae/ha, 21 DAA): 85%
AVE. AMBEL ([7]; 280 g ae/ha, 7 DAA): 82.5%
AVE. AMBEL ([7]; 280 g ae/ha, 14 DAA): 77.5%
AVE. AMBEL ([7]; 280 g ae/ha, 21 DAA): 100%
AVE. AMBEL ([7]; 560 g ae/ha, 7 DAA): 65%
AVE. AMBEL ([7]; 560 g ae/ha, 14 DAA): 90%
AVE. AMBEL ([7]; 560 g ae/ha, 21 DAA): 100%
